Results: patent publication US6639078B1, “Assays for ligands for nuclear receptors” (SmithKline Beecham Corporation, priority 1998, dated 2003)
Where two headings read alike, the source gives them in different places.

Legend:
human FXR LBD [1] = target: T1, human FXR LBD (Homo sapiens, UniProt Q96RI1); assay: FRET ligand-sensing assay: SRC1 peptide binding to FXR LBD; conditions: 100 μM compound (FIG. 3A/4a)
T1 sequence (Q96RI1 222-472 isoform Q96RI1-2): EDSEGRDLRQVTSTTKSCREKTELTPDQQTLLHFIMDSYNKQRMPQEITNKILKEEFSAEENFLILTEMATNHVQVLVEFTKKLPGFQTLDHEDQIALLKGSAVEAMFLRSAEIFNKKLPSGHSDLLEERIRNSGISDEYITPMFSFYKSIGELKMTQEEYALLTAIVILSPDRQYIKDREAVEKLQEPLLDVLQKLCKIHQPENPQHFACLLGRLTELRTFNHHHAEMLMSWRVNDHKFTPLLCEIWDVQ

full-length human FXR = target: T2, full-length human FXR (Homo sapiens, UniProt Q96RI1); assay: CAT reporter assay in CV-1 cells transfected with FXR, human RXRα and FXREhsp27-tk-CAT; conditions: 100 μM bile acid or farnesol, 10 μM steroid or TTNPB
T2 sequence (Q96RI1 1-472 isoform Q96RI1-2): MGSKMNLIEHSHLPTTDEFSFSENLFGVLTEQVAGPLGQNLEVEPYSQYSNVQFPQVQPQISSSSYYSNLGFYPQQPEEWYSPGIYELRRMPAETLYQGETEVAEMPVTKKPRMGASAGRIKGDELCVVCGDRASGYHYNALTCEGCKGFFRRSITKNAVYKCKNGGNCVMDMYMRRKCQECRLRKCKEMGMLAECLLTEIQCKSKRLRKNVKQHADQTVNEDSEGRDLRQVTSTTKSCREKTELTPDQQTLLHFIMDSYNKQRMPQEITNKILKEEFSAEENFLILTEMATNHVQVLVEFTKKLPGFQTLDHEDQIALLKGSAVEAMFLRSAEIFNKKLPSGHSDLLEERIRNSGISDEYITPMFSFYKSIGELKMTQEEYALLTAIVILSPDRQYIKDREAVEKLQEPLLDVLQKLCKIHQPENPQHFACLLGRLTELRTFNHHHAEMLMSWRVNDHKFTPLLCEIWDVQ
T2 sequence (P19793 1-462 partner): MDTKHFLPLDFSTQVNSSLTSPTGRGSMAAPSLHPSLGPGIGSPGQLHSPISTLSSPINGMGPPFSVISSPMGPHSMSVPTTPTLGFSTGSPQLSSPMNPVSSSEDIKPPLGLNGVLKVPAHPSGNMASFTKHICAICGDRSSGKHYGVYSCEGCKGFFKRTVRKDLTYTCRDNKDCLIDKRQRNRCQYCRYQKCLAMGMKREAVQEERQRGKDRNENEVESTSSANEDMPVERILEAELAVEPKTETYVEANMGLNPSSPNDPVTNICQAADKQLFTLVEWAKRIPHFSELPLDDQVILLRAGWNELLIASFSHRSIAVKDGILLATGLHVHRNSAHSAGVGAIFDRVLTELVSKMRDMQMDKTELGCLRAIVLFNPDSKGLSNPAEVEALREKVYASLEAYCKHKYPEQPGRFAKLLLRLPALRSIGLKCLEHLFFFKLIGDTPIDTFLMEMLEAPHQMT
From the text: CV-1 cells were transiently transfected with an expression plasmid encoding the human FXR and a reporter construct containing the hsp27-EcRE, a response element that is known to be activated by the FXR/RXR heterodimer.

human FXR LBD [2] = target: T1, human FXR LBD; assay: FRET ligand-sensing assay in the presence of 50 μM CDCA (competition with CDCA for FXR binding)
From the text: Data are expressed as the means ± SD derived from three independent experiments.
Data were collected using a Wallac Victor™ fluorescence reader in a time-resolved mode.

Row | Molecule | effect on interaction between FXR LBD and SRC1 peptide (human FXR LBD [1]) | activation of full-length human FXR (full-length human FXR) | also measured
1 | C/C(=C\c1ccc(C(=O)O)cc1)c1ccc2c(c1)C(C)(C)CCC2(C)C [TTNPB] | did not promote interactions | activate FXR | effect on CDCA-FXR-SRC1 complex (fluorescence signal) (human FXR LBD [2]; in the presence of 50 μM CDCA): disrupted the CDCA-FXR-SRC1 complex in a dose-dependent fashion
2 | muricholic acid [MCA] |  |  | IC50 (human FXR LBD [2]; read-out: half-maximal inhibitor concentration IC50 in the cell-free ligand sensing assay, in the presence of 50 μM CDCA): > 1000 µM
3 | C[C@H](CCC(=O)O)[C@H]1CC[C@H]2[C@@H]3[C@H](O)[C@@H](O)[C@@H]4C[C@H](O)CC[C@]4(C)[C@H]3CC[C@]12C [α-muricholic acid] |  | no activation | 
4 | C[C@H](CCC(=O)O)[C@H]1CC[C@H]2[C@@H]3[C@@H](O)[C@@H](O)[C@@H]4C[C@H](O)CC[C@]4(C)[C@H]3CC[C@]12C [β-muricholic acid] |  | no activation | 
5 | C[C@H](CCC(=O)O)[C@H]1CC[C@H]2[C@@H]3[C@H](O)C[C@@H]4C[C@H](O)CC[C@]4(C)[C@H]3C[C@H](O)[C@]12C [CA, cholic acid] | no effect | inactive | 
6 | C[C@H](CCC(=O)O)[C@H]1CC[C@H]2[C@@H]3CC[C@@H]4C[C@H](O)CC[C@]4(C)[C@H]3C[C@H](O)[C@]12C [DCA, deoxycholic acid] |  |  | IC50 (human FXR LBD [2]): 100 µM
